Assay [1] has as its system acetylated α-tubulin in A549 lung adenocarcinoma cells. As to the kind of experiment: Acetylated α-tubulin in-cell western (ICW) assay. The note with it: Homo sapiens, 16 h exposure, relative to 40 μM scriptaid positive control, read-out: EC50 Ac-α-tubulin, A549 cells. It is filed as cell-based. As to the method:
(§1) Acetylated α-Tubulin and Histone H3 in-Cell Western (ICW) Assays
(§2) A549 cells were maintained in DMEM (Life Technologies)+10% FBS+2 mM glutamine & penicillin (10 μg/mL) and streptomycin ([…]. 10,000 A549 cells per well were plated into 96 well tissue culture plates (Corning) and incubated at 37° C. overnight in a humidified atmosphere containing 5% CO2 prior to addition of compounds. Compounds (dissolved in 100% DMSO) were diluted into cell culture media at 2× final assay concentration. 2× compound or DMSO (negative control) were added to cells (final DMSO concentration 0.4%). Untreated control wells received media. For acetylated α-tubulin assays, 40 μM scriptaid was used as a positive control. For acetylated histone H3 assays, 40 μM Trichostatin A (TSA) was used as a positive control. Cells were exposed to compound at 37° C. in a humidified atmosphere containing 5% CO2 for 16 h.
(§3) Measurement of the impact of compounds on levels of acetylated α-tubulin and histone H3 was performed using specific antibodies and near-infrared immunofluorescent dyes. Briefly, media was removed from wells of assay plates. Cells were washed once with PBS and fixed in 3.7% formaldehyde PBS solution at room temperature for 20 min. Cells were then permeabilised by washing 5 times in 0.1% triton-X-100 PBS at room temperature with gentle agitation for 5 min per wash. Non-specific antibody staining was blocked by the addition of Odyssey blocking buffer (Li-Cor) for 1.5 h at room temperature with gentle agitation. Cells were then incubated with primary antibody (mouse monoclonal anti-acetylated α-tubulin (clone 6-11B-1), Sigma or rabbit polyclonal anti-acetylated histone H3, Millipore) diluted in Odyssey blocking buffer at 4° C. with gentle shaking overnight (no antibody control and secondary antibody only wells were incubated with Odyssey blocking buffer only). Cells were washed five times with 0.1% tween PBS and labelled with secondary antibody (IR dye 800CW-conjugated goat anti mouse IgG or -goat anti rabbit IgG, Li-Cor) and cell stains Sapphire700 (Li-Cor) and Draq5 (Biostatus) diluted in Odyssey blocking buffer at room temperature in the dark with gentle shaking for 1 h (no antibody control wells were incubated with Odyssey blocking buffer only and secondary antibody only with diluted secondary antibody but no cell stains). Cells were washed with 0.1% Tween PBS five times and scanned using a Li-Cor Odyssey SA plate reader in 700 and 800 nm channels. Acetylated α-tubulin or histone H3 signal was normalised to cell number using the cell stain signal. Percentage increase in acetylated α-tubulin or histone H3 after compound treatment over the mean of DMSO treated controls, relative to scriptaid and TSA positive controls, respectively was calculated. EC50 values were calculated using GraphPad Prism software and nonlinear regression with 0% bottom and 100% top constraints.

Assay [2] concerns acetylated histone H3 in A549 lung adenocarcinoma cells. The assay can be described thus: Acetylated histone H3 in-cell western (ICW) assay. In kind it is cell-based. The note with it: Homo sapiens, 16 h exposure, relative to 40 μM Trichostatin A positive control, read-out: EC50 Ac-histone H3, A549 cells. As to the method: as §1, §2, §3

The text below walks through data of patent US20210038607A1, “OXADIAZOLYLTHIOPHENE DERIVATIVES USEFUL AS HISTONE DEACETYLASE INHIBITORS” (Karus Therapeutics Limited, priority 2018, published 2021).

A word on the EC50: it is the midpoint of the concentration-response curve.

Where only a bound is given, the exact number is not on record here.

For the compound `COC1CN(Cc2ccnc(N(Cc3ccc(-c4noc(C(F)(F)F)n4)s3)c3cnccn3)c2)C1` [Example GH, N-{4-[(3-Methoxyazetidin-1-yl)methyl]pyridin-2-yl}-N-({5-[5-(trifluoromethyl)-1,2,4-oxadiazol-3-yl]thiophen-2-yl}methyl)pyrazin-2-amine], the EC50 in assay [1] is at most 1 µM; in assay [2] it was at least 10 µM.
On the same counts, the results for `O=C(c1nccnc1N(Cc1ccc(-c2noc(C(F)(F)F)n2)s1)c1cnccn1)N1CCC1` [Example GP, 3-(Azetidine-1-carbonyl)-N-(pyrazin-2-yl)-N-({5-[5-(trifluoromethyl)-1,2,4-oxadiazol-3-yl]thiophen-2-yl}methyl)pyrazin-2-amine] are 1 to 10 µM and at least 10 µM.
On the same counts, the results for `O=C(c1cnnc(N(Cc2ccc(-c3noc(C(F)(F)F)n3)s2)c2cnccn2)c1)N1CCS(=O)(=O)CC1` [Example ED, 4-{6-[(Pyrazin-2-yl)({5-[5-(trifluoromethyl)-1,2,4-oxadiazol-3-yl]thiophen-2-yl}methyl)amino]pyridazine-4-carbonyl}-1λ^6-thiomorpholine-1,1-dione] are at most 1 µM and at least 10 µM.
